Source: PMC7005530, “A selective androgen receptor modulator SARM‐2f activates androgen receptor, increases lean body mass, and suppresses blood lipid levels in cynomolgus monkeys” (Pharmacology Research & Perspectives, 2020)
Where two headings read alike, the source gives them in different places.

Columns and labels:
[1] = parameters: method as in PMID 28454849; conditions: monkeys, cited from earlier work
[2] = tested on: 126 biochemical activity assays (enzyme assays or radioligand binding assays); test: 126 biochemical activity assays (enzyme assays or radioligand binding assays), MDS Pharma Service; conditions: at 10 µmol/L; Table S5 (picture, not readable)
From the text: Based on these findings, we believe that SARM‐2f has no severe off‐target effects.

cynomolgus monkey AR = biological target: T1, cynomolgus monkey AR (Macaca fascicularis, UniProt O97952); test: AR reporter assay (MMTV-luc) in COS7 cells expressing monkey AR; assay type: cell-based
T1 construct: expressed in transfected cells; host or cells: COS7
T1 sequence (O97952 1-895): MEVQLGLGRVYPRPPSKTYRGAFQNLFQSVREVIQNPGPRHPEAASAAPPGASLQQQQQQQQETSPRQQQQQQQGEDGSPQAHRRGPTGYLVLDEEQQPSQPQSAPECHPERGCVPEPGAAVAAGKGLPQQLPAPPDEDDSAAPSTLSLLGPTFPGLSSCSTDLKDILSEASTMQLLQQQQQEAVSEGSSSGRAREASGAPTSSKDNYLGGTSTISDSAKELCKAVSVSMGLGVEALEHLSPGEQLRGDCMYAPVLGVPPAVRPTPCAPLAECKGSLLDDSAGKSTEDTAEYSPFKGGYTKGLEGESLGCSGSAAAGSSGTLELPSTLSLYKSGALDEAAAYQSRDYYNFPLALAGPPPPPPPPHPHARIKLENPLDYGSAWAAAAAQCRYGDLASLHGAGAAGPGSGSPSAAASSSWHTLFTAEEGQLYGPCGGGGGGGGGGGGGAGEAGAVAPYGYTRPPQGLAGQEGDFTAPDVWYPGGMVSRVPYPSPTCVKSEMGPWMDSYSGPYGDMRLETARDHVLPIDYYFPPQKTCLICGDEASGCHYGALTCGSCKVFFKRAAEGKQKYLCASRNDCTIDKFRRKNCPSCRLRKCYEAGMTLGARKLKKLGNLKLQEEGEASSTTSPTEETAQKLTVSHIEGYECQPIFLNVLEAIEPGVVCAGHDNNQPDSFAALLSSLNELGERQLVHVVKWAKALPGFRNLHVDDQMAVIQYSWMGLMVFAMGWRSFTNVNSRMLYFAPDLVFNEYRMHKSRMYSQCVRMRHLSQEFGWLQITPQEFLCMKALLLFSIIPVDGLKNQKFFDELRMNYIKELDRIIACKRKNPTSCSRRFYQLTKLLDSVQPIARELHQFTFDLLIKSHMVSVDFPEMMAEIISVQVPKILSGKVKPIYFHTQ
Experimental: Two hours post‐transfection, the cells were plated in 96‐well plates at a density of 2 × 10^4 cells/well, and cultured at 37°C for 3 hours. […] Luciferase activity was measured using the Steady‐Glo Luciferase assay system (Promega) and an Envision Multimode Plate Reader (PerkinElmer).
In the reporter assays, EC50 was calculated using Graph Pad Prism version 6. The effects of SARM‐2f or TE on BW and LBM were analyzed by t test, with Bonferroni correction for repeated measurements.

[3] = Plasma lipid levels after 4-week treatment; assay type: in vivo, cynomolgus monkey; conditions: after 4 wks, SARM‐2f 1, 3, 10 mg/kg daily p.o., vs vehicle
Experimental: The monkeys were divided into five groups by weight randomization (MiTOX system ver2.0, Mitsui E & S Systems Research Inc) on the last day of the habituation period. SARM‐2f was orally administered at daily doses of 1, 3, or 10 mg/kg for 4 weeks between 9:00 and 11:00 hours, using 0.5% w/v methylcellulose as the vehicle. TE was injected intramuscularly on Day 0 and Day 13; the dosing start was set at Day 0 at a dose of 2 mg/kg using sesame oil as the vehicle. The route of administration and dose of TE was selected according to the route and dose mentioned in the clinical indications. BW was measured every week before dosing (between 8:30 and 9:00 hours), and LBM was measured every 2 weeks after dosing and before feeding (between 11:30 and 14:30 hours) using an X‐ray bone density measuring device (Discovery, HOLOGIC USA). Blood collection for lipid profiles was conducted on the day after the completion of the four‐week multiple administration of SARM‐2f or TE. Plasma levels of total cholesterol (T‐chol), HDL‐c, low‐density lipoprotein cholesterol (LDL‐c), triglyceride (TG), alanine aminotransferase (ALT), and […] (AST) were measured by an automatic JCA‐BM8 analysis system (JEOL Ltd.). Plasma lipoprotein (a) (Lp (a)) levels were measured using a multiplate absorbance measuring system (Multiscan Ascent, Thermo Fisher Scientific KK). […]

[4] = Pharmacokinetic study, oral single and 14-day dosing; assay type: in vivo, cynomolgus monkey
Experimental: Monkeys were orally treated with SARM‐2f (10 mg/kg) as a single dose or daily administration for 14 consecutive days; blood was collected from the femoral vein at 0.5, 1, 2, 4, 8, and 24 hours after the single dose and 14 doses (n = 2 each sex). The blood samples were centrifuged (4°C, 12 000 g, 1 minutes) to obtain plasma. Plasma concentrations of SARM‐2f were measured by liquid chromatography/tandem mass spectrometry.

[5] = parameters: method as in PMID 28454849; conditions: rats, cited from earlier work
[6] = intravenous administration at 0.1 mg/kg
[7] = single oral administration at 1 mg/kg
[8] = 10 mg/kg p.o., 1st (single) dose, total N = 4
[9] = 10 mg/kg p.o., 1st dose, female N = 2
[10] = 10 mg/kg p.o., 1st dose, male N = 2
[11] = 10 mg/kg/day p.o., 14th dose, female N = 2
[12] = 10 mg/kg/day p.o., 14th dose, male N = 2
[13] = 10 mg/kg/day p.o., 14th dose, total N = 4

For `CC[C@H]1[C@@H](O)CC(=O)N1c1ccc(C#N)c(C(F)(F)F)c1` [SARM‐2f, 4′‐[(2S,3S)‐2‐Ethyl‐3‐hydroxy‐5‐oxopyrrolidin‐1‐yl]‐2′‐(trifluoromethyl) benzonitrile], which Vdss [1, 6] is on record?
Its Vdss is 1.409 L/kg.

What about the “AUC 0‐24 h” value [1, 7] of the same molecule?
The value was 557.8 ng·h/mL.

What about the “MRT (Mean Residence Time)” value [1] of the same molecule?
Its value is 5.21 h.

And the “molecules affected in 126 biochemical activity assays” value [2]?
The value was “the only molecule that SARM‐2f affected at 10 µmol/L was AR”.

What about the EC50 (cynomolgus monkey AR; monkey AR reporter assay (abstract), read-out: EC50) of the same molecule?
Its EC50 is 3 nM.

And the “maximal AR activation” value (cynomolgus monkey AR; monkey AR, at 1 μmol/L, 1 μmol/L DHT = 100%)?
Its value is 125%.

What about the “Blood level of HDL‐c” value ([3]; TE 2 mg/kg every 2 wks) of the same molecule?
Its value is “only reduced in animals treated with 3 or 10 mg/kg”.

What about the “Blood level of LDL‐c” value ([3]; TE 2 mg/kg every 2 wks) of the same molecule?
The value was “lower”.

And the “Blood level of TG” value ([3]; TE 2 mg/kg every 2 wks)?
The value was “lower”.

And the “Blood level of T‐chol” value ([3]; TE 2 mg/kg every 2 wks)?
The value was “lower”.

And the “Lp (a) protein level” value ([3]; TE 2 mg/kg every 2 wks)?
The value was “showed a tendency to be decreased”.

And the “HDL‐c/LDL‐c ratio” value [3]?
Its value is “did not cause any significant change”.

What about the “AUC 0‐24 h” value [4, 8] of the same molecule?
The value was 8152 ± 945 ng·h/mL.

And the C max [4, 8]?
The C max was 3011 ± 718 ng/mL.

What about the T max [4, 8] of the same molecule?
Its T max is 1.0 ± 0.0 h.

What about the “AUC 0‐24 h” value [4, 9] of the same molecule?
The value was 8116 ng·h/mL.

What about the C max [4, 9] of the same molecule?
The C max was 3341 ng/mL.

And the T max [4, 9]?
Its T max is 1.0 h.

What about the “AUC 0‐24 h” value [4, 10] of the same molecule?
Its value is 8188 ng·h/mL.

What about the C max [4, 10] of the same molecule?
The C max was 2681 ng/mL.

What about the T max [4, 10] of the same molecule?
Its T max is 1.0 h.

What about the “AUC 0‐24 h” value [4, 11] of the same molecule?
The value was 6043 ng·h/mL.

What about the C max [4, 11] of the same molecule?
Its C max is 2297 ng/mL.

What about the T max [4, 11] of the same molecule?
The T max was 1 h.

And the “AUC 0‐24 h” value [4, 12]?
The value was 8620 ng·h/mL.

And the C max [4, 12]?
Its C max is 3176 ng/mL.

And the T max [4, 12]?
The T max was 0.8 h.

What about the “AUC 0‐24 h” value [4, 13] of the same molecule?
Its value is 7331 ± 1618 ng·h/mL.

And the C max [4, 13]?
Its C max is 2736 ± 525 ng/mL.

And the T max [4, 13]?
The T max was 0.9 ± 0.3 h.

And the Vdss [5, 6]?
The Vdss was 2.167 L/kg.

And the “AUC 0‐24 h” value [5, 7]?
The value was 809.4 ng·h/mL.

And the “MRT (Mean Residence Time)” value [5]?
The value was 3.06 h.
